In US20180273598A1, “ADHD MARKER, APPLICATION THEREOF AND KIT” (WENZHOU KANGNING HOSPITAL CO., LTD., priority 2017, published 2018):

Columns and labels:
[1] = test system: wild larvae zebrafish; test: Behavior tracking of wild-type zebrafish larvae treated with GHSR-1a antagonist; format: in vivo; details: wild-type (AB) embryos treated from 6 hpf to 3 dpf; 0.08 uM/L YIL781 (FIG. 4)
Method: Zebrafish embryos (AB) were treated with different concentrations of YIL781 (0.08 uM, 0.4 uM, 2 uM, 10 uM, 50 uM) from 6 hpf to 3 dpf, and the behavior was detected by viewpoint behavioral recorder. The concrete scheme was as follows: [table]

[2] = test system: ghrelin mutant zebrafish; test: Behavior tracking of ghrelin mutant zebrafish larvae treated with methylphenidate; format: in vivo; details: ghrelin-/- embryos, 10 uM for 1 h at 3 dpf (FIG. 6)
Method: The embryos produced by ghrelin+/+, ghrelin−/− zebrafish intercross were treated with Methylphenidate at 72 hpf for 1 h. Pick a single hatched zebrafish larvae into a 96-well plate, behavior was tested as following table. After test, the genotype of the zebrafish larvae was identified by PCR and enzyme digestion.
The ghrelin^−/− embryos were treated with 10 uM methylphenidate for 1 h at 3 dpf, and the movement distance was measured by behavior recorder.

Compound | activity phenotype of normal zebrafish larvae (behavioral recorder) [1] | movement distance of ghrelin mutant after treatment [2] | movement distance of treated ghrelin mutant compared with the control group [2]
Cc1nc2ccc(Oc3ccc(F)cc3)cc2c(=O)n1C[C@H]1CCCN(C(C)C)C1 [YIL781] | induced normal zebrafish to produce a hyperactivity phenotype | – | –
COC(=O)C(c1ccccc1)C1CCCCN1 (stereo not drawn) [methylphenidate] | – | decreased its movement distance | no significantly different with the control group
